Source: US10273233B2, “Inhibitors of influenza viruses replication” (Vertex Pharmaceuticals Incorporated, priority 2015, dated 2019)

How the values were obtained:
[1] = system: B/Memphis/20/1996--070; assay: 3-day CP assay in MDCK cells; type: cell-based; conditions: Influenza B virus
[2] = system: A/South Dakota/6/2007; assay: 3-day CP assay in MDCK cells; type: cell-based; conditions: Influenza A virus
[3] = system: A/Swine/Iowa/15/30; assay: microbe, parasite or virus in culture; type: cell-based, influenza A; conditions: Influenza A virus, MDCK, in Sus scrofa
[4] = system: A/St. Petersburg8/2006; assay: 3-day CP assay in MDCK cells; type: cell-based; conditions: Influenza A virus
[5] = system: A/Nebraska/1/2006; assay: 3-day CP assay in MDCK cells; type: cell-based; conditions: Influenza A virus
[6] = system: A/New York/18/2009; assay: 3-day CP assay in MDCK cells; type: cell-based; conditions: Influenza A virus
[7] = system: A/Cambodia0371/2007; assay: 3-day CP assay in MDCK cells; type: cell-based; conditions: Influenza A virus
[8] = system: A/Victoria/3/75; assay: 3-day CP assay in MDCK cells; type: cell-based; conditions: Influenza A virus
[9] = system: A/Texas/48/2009; assay: 3-day CP assay in MDCK cells; type: cell-based; conditions: Influenza A virus
[10] = system: A/Missouri/3/2006; assay: 3-day CP assay in MDCK cells; type: cell-based; conditions: Influenza A virus
[11] = system: B/Russia/69; assay: 3-day CP assay in MDCK cells; type: cell-based; conditions: Influenza B virus
[12] = system: A/Mal/302/54; assay: 3-day CP assay in MDCK cells; type: cell-based; conditions: Influenza A virus
[13] = system: A/NWS/33; assay: 3-day CP assay in MDCK cells; type: cell-based, influenza A; conditions: Influenza A virus, MDCK
[14] = system: A/Chelyabinsk/1/200; assay: 3-day CP assay in MDCK cells; type: cell-based; conditions: Influenza A virus
[15] = system: A/Port Chalmers/1/73; assay: 3-day CP assay in MDCK cells; type: cell-based; conditions: Influenza A virus
[16] = system: A/Mexico/4108/2009; assay: 3-day CP assay in MDCK cells; type: cell-based; conditions: Influenza A virus
[17] = system: A/New Jersey/8/76; assay: microbe, parasite or virus in culture; type: cell-based; conditions: Influenza A virus, MDCK
[18] = system: A/Georgia/17/2006; assay: 3-day CP assay in MDCK cells; type: cell-based; conditions: Influenza A virus
[19] = system: A/Texas/12/2007; assay: 3-day CP assay in MDCK cells; type: cell-based; conditions: Influenza A virus
[20] = system: A/Virginia/ATCC2/2009; assay: 3-day CP assay in MDCK cells; type: cell-based; conditions: Influenza A virus
[21] = system: A/Fukushima/141/2006; assay: 3-day CP assay in MDCK cells; type: cell-based; conditions: Influenza A virus
[22] = system: A/California/07/2009 NYMC, X-179A; assay: 3-day CP assay in MDCK cells; type: cell-based; conditions: Influenza A virus
[23] = system: A/Uruguay/716/2007; assay: 3-day CP assay in MDCK cells; type: cell-based; conditions: Influenza A virus
[24] = system: A/Hong Kong/8/68; assay: 3-day CP assay in MDCK cells; type: cell-based; conditions: Influenza A virus
[25] = system: B/Lee/40; assay: 3-day CP assay in MDCK cells; type: cell-based; conditions: Influenza B virus
[26] = system: A/Denver/1/57; assay: 3-day CP assay in MDCK cells; type: cell-based; conditions: Influenza A virus
[27] = system: A/Santiago/7981/2006; assay: 3-day CP assay in MDCK cells; type: cell-based; conditions: Influenza A virus
[28] = system: A/Virginia/ATCC3/2009; assay: 3-day CP assay in MDCK cells; type: cell-based; conditions: Influenza A virus
[29] = system: A/Aichi/2/68; assay: 3-day CP assay in MDCK cells; type: cell-based; conditions: Influenza A virus
[30] = system: A/Puerto Rico/8/34; assay: 3-day CP assay in MDCK cells; type: cell-based; conditions: Influenza A virus
[31] = system: A/WS/33; assay: 3-day CP assay in MDCK cells; type: cell-based; conditions: Influenza A virus
[32] = system: A/Weiss/43; assay: 3-day CP assay in MDCK cells; type: cell-based; conditions: Influenza A virus
[33] = system: A/Swine/1976/31; assay: microbe, parasite or virus in culture; type: cell-based; conditions: Influenza A virus, MDCK, in Sus scrofa
[34] = system: A/Hawaii/2/2006; assay: 3-day CP assay in MDCK cells; type: cell-based; conditions: Influenza A virus
[35] = system: A/Virginia/01/2006; assay: 3-day CP assay in MDCK cells; type: cell-based; conditions: Influenza A virus
[36] = system: A/Georgia/20/2006; assay: 3-day CP assay in MDCK cells; type: cell-based, influenza A; conditions: Influenza A virus, MDCK
[37] = system: A/FM/1/47; assay: 3-day CP assay in MDCK cells; type: cell-based; conditions: Influenza A virus
[38] = system: A/Equine/Miami/63; assay: microbe, parasite or virus in culture; type: cell-based; conditions: Influenza A virus, MDCK
[39] = system: A/Henan/Jinshui/147/2007; assay: 3-day CP assay in MDCK cells; type: cell-based; conditions: Influenza A virus
[40] = system: A/Wisconsin/67/2005; assay: 3-day CP assay in MDCK cells; type: cell-based; conditions: Influenza A virus
[41] = system: A/California/07/2009; assay: 3-day CP assay in MDCK cells; type: cell-based; conditions: Influenza A virus, MDCK; A/California/07/2009
[42] = system: B/Memphis/20/1996--071; assay: 3-day CP assay in MDCK cells; type: cell-based; conditions: Influenza B virus

In the case of NC12CC3CC(CC(C3)C1)C2 [Amantadine, amantadine], the EC50 [1] is reported as over 10 µM, the EC50 [2] is reported as 0.14 µM and the EC50 [3] is reported as 0.22 µM. The EC50 [4] was over 10 µM, the EC50 [5] was over 10 µM and the EC50 [6] was over 10 µM. The EC50 [7] was over 10 µM, the EC50 [8] was 8.6 µM and the EC50 [9] was over 10 µM. It also gave an EC50 [10] of 6 µM, an EC50 [11] of over 10 µM and an EC50 [12] of 2.1 µM. The EC50 [13] was over 10 µM, the EC50 [14] was over 10 µM and the EC50 [15] was over 10 µM. It also gave an EC50 [16] of over 10 µM, an EC50 [17] of 0.82 µM and an EC50 [18] of 0.25 µM. It also gave an EC50 [19] of over 10 µM, an EC50 [20] of over 10 µM and an EC50 [21] of 0.46 µM. For the same compound, the EC50 [22] was over 10 µM, the EC50 [23] was over 10 µM and the EC50 [24] was 3.7 µM. For the same compound, the EC50 [25] was over 10 µM, the EC50 [26] was 0.31 µM and the EC50 [27] was over 10 µM. The EC50 [28] was over 10 µM, the EC50 [29] was 6.6 µM and the EC50 [30] was over 10 µM. The EC50 [31] was over 10 µM, the EC50 [32] was over 10 µM and the EC50 [33] was 0.078 µM. For the same compound, the EC50 [34] was 9.2 µM, the EC50 [35] was over 10 µM and the EC50 [36] was over 10 µM. It also gave an EC50 [37] of 0.66 µM, an EC50 [38] of 1.75 µM and an EC50 [39] of over 10 µM. For the same compound, the EC50 [40] was over 10 µM and the EC50 [41] was over 10 µM.

With CC(=O)N[C@H]1[C@H]([C@H](O)[C@H](O)CO)OC(C(=O)O)=C[C@@H]1N=C(N)N [Zanamivir] the EC50 [1] was 2.6 µM, the EC50 [2] was 3.4 µM and the EC50 [3] was 1.8 µM. For the same compound, the EC50 [4] was 6 µM, the EC50 [5] was over 10 µM and the EC50 [6] was 0.31 µM. It also gave an EC50 [7] of 2.1 µM, an EC50 [8] of 4.1 µM and an EC50 [9] of 1.7 µM. For the same compound, the EC50 [10] was 3.6 µM, the EC50 [11] was 3.1 µM and the EC50 [12] was 0.28 µM. For the same compound, the EC50 [13] was over 10 µM, the EC50 [14] was 7.6 µM and the EC50 [15] was 0.67 µM. For the same compound, the EC50 [16] was 3.8 µM, the EC50 [17] was 6.2 µM and the EC50 [18] was over 10 µM. It also gave an EC50 [19] of 8.2 µM, an EC50 [20] of over 10 µM and an EC50 [21] of 0.27 µM. It also gave an EC50 [22] of 5.6 µM, an EC50 [23] of 4.7 µM and an EC50 [24] of 0.15 µM. It also gave an EC50 [42] of 6 µM, an EC50 [25] of over 10 µM and an EC50 [26] of over 10 µM. It also gave an EC50 [27] of 4 µM, an EC50 [28] of over 10 µM and an EC50 [29] of over 10 µM. For the same compound, the EC50 [30] was over 10 µM, the EC50 [31] was over 10 µM and the EC50 [32] was 0.08 µM. The EC50 [33] was 0.25 µM, the EC50 [34] was over 10 µM and the EC50 [35] was 0.83 µM. For the same compound, the EC50 [36] was 4.3 µM, the EC50 [37] was 2.6 µM and the EC50 [38] was 0.93 µM. The EC50 [39] was over 10 µM, the EC50 [40] was 0.16 µM and the EC50 [41] was over 10 µM.
